The text below walks through data of patent US20100280010A1, “CHEMICAL COMPOUNDS” (priority 2006, published 2010).

This experiment relates to HIV-1 (Ba-L or IIIB) infection of HOS cell line (expressing hCXCR4/hCCR5/hCD4/pHIV-LTR-luciferase). The experiment is described as follows: HOS HIV-1 Infectivity Assay. The class given is cell-based. As to conditions: Human immunodeficiency virus 1, HOS, virus strain not given, read-out: Activity Level. The protocol: Compounds were profiled against two HIV-1 viruses, the M-tropic (CCR5 utilizing) Ba-L strain and the T-tropic (CXCR4 utilizing) IIIB strain. Ba-L was propagated in either peripheral blood lymphocytes or SupT1/CCR5+/CXCR4+ cells. IIIB was propagated in peripheral blood lymphocytes. Compounds were tested for their ability to block infection of the HOS cell line (expressing hCXCR4/hCCR5/hCD4/pHIV-LTR-luciferase) by either HIV-1 Ba-L or HIV-1 IIIB. Compound cytotoxicity was also examined in the absence of virus addition.
HOS cells (expressing hCXCR4/hCCR5/hCD4/pHIV-LTR-luciferase) were harvested and diluted in Dulbeccos modified Eagles media supplemented with 2% FCS to a concentration of 120,000 cells/ml. The cells were plated into 96-well plates (50 μl per well) and the plates were placed in a tissue culture incubator ([…]; 5% CO2195% air) for a period of 24 h.
Subsequently, 50 μl of the desired drug solution (2 times the final concentration) was added to each well and the plates were returned to the tissue culture incubator (370° C.; 5% CO2/95% air) for 1 h. Following this incubation, 60 μl of diluted virus (4 times the final concentration) was added to 60 μl of 2× the final desired concentration of the compound and 100 μl of this compound/virus mix was added to each well (approximately 2 million RLU per well of virus). The plates were returned to the tissue culture incubator (370° C.; 5% CO2/95% air) and were incubated for a further 96 h.
Following this incubation the endpoint for the virally infected cultures was quantified following addition of Steady-Glo Luciferase assay system reagent (Promega, Madison, Wis.). Cell viability or non-infected cultures was measured using a CellTiter-Glo luminescent cell viability assay system (Promega, Madison, Wis.). All luminescent readouts are performed on a Topcount luminescence detector (Packard, Meridien, Conn.).

Turning to `CN(C)CCN(C)c1cccc2nc(CN(C)[C@H]3CCCc4cccnc43)c(Cl)n12` [Example 77, N-[3-Chloro-2-({methyl[(8S)-5,6,7,8-tetrahydro-8-quinolinyl]amino}methyl)imidazo[1,2-a]pyridin-5-yl]-N,N′,N′-trimethyl-1,2-ethanediamine], the IC50 was below 100 nM.

Consider `C[C@H]1CN(c2cccc3nc(CN(C)[C@H]4CCCc5cccnc54)c(Cl)n23)CCN1C` [Example 79, (8S)—N-([3-Chloro-5-[(3S)-3,4-dimethyl-1-piperazinyl]imidazo[1,2-a]pyridin-2-yl]methyl)-N-methyl-5,6,7,8-tetrahydro-8-quinolinamine], for which the IC50 is below 100 nM.

`CCCN(Cc1nc2cccc(N3CCN(CC)CC3)n2c1Cl)[C@H]1CCCc2cccnc21` [Example 83, (8S)—N-{[3-Chloro-5-(4-ethyl-1-piperazinyl)imidazo[1,2-a]pyridin-2-yl]methyl}-N-propyl-5,6,7,8-tetrahydro-8-quinolinamine]: the IC50 was below 100 nM.

With `CC(C)N(Cc1nc2cccc(N3CCN(C)CC3)n2c1C(N)=O)[C@H]1CCCc2cccnc21` [Example 30, 2-([(1-Methylethyl)[(8S)-5,6,7,8-tetrahydro-8-quinolinyl]amino]methyl)-5-(4-methyl-1-piperazinyl)imidazo[1,2-a]pyridine-3-carboxamide], the IC50 was below 100 nM.

For `CCN(Cc1nc2cccc(N3CCN(C)CC3)n2c1C(N)=O)[C@H]1CCCc2cccnc21` [Example 22, 2-({Ethyl[(8S)-5,6,7,8-tetrahydro-8-quinolinyl]amino}methyl)-5-(4-methyl-1-piperazinyl)imidazo[1,2-a]pyridine-3-carboxamide], the IC50 was below 100 nM.

As to `CCN(Cc1nc2cccc(N3CCC(N(C)C)CC3)n2c1C#N)[C@H]1CCCc2cccnc21` [Example 62, 5-[4-(dimethylamino)-1-piperidinyl]-2-({ethyl[(8S)-5,6,7,8-tetrahydro-8-quinolinyl]amino}methyl)imidazo[1,2-a]pyridine-3-carbonitrile], the IC50 is below 100 nM.

With `CCCN(Cc1nc2cccc(N3CCC(N(C)C)CC3)n2c1C#N)[C@H]1CCCc2cccnc21` [Example 66, 5-[4-(dimethylamino)-1-piperidinyl]-2-({propyl[(8S)-5,6,7,8-tetrahydro-8-quinolinyl]amino}methyl)imidazo[1,2-a]pyridine-3-carbonitrile], the IC50 was below 100 nM.

Regarding `CCN(Cc1nc2cccc(N3CC[C@@H](N(C)C)C3)n2c1C(N)=O)[C@H]1CCCc2cccnc21` [Example 43, 5-[(3R)-3-(Dimethylamino)-1-pyrrolidinyl]-2-({ethyl[(8S)-5,6,7,8-tetrahydro-8-quinolinyl]amino}methyl)imidazo[1,2-d]pyridine-3-carboxamide], the IC50 was below 100 nM.

As to `CC(C)N(Cc1nc2cccc(N3CCN(C)CC3)n2c1C#N)[C@H]1CCCc2cccnc21` [Example 29, 2-({(1-Methylethyl)[(8S)-5,6,7,8-tetrahydro-8-quinolinyl]amino}methyl)-5-(4-methyl-1-piperazinyl)imidazo[1,2-a]pyridine-3-carbonitrile], the IC50 is below 100 nM.

With `CN1CCN(c2cccc3nc(CN(C)[C@H]4CCCc5cccnc54)c(Br)n23)CC1` [Example 16, (8S)—N-{[3-Bromo-5-(4-methyl-1-piperazinyl)imidazo[1,2-a]pyridin-2-yl]methyl}-N-methyl-5,6,7,8-tetrahydro-8-quinolinamine], the IC50 is below 100 nM.

For `CCCN(Cc1nc2cccc(N3CC[C@@H](N(C)C)C3)n2c1C(N)=O)[C@H]1CCCc2cccnc21` [Example 47, 5-[(3R)-3-(Dimethylamino)-1-pyrrolidinyl]-2-({propyl[(8S)-5,6,7,8-tetrahydro-8-quinolinyl]amino}methyl)imidazo[1,2-a]pyridine-3-carboxamide], the IC50 is below 100 nM.
